In ChEMBL document CHEMBL4257557, “Design, synthesis, and evaluation of 4,5,6,7-tetrahydrobenzo[d]thiazole-based novel dual kinase inhibitors of CK2 and GSK3β” (Medchemcomm, 2018) one finds inhibition and IC50 data, which are given here for 36 compounds.

Experiment [1] deals with T1, Casein kinase II subunit alpha (Homo sapiens, UniProt P68400). Description: Inhibition of recombinant full length human His-tagged CK2alpha1 expressed in baculovirus expression system at 11 uM using ser/thr-11 peptide as substrate measured after 1 hr by Z'-Lyte assay relative to control.
Target sequence in this assay (P68400 whole entry, looked up): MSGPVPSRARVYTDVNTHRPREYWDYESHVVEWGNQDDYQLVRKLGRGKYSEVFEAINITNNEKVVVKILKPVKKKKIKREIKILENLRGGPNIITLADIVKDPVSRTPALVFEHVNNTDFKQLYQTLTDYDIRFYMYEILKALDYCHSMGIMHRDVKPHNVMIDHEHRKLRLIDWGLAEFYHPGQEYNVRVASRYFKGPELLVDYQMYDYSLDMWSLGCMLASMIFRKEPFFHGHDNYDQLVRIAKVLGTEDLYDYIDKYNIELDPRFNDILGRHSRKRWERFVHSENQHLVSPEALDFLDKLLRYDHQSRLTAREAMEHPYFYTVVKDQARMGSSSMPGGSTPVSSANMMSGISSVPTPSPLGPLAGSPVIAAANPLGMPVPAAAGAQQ
The target in experiment [2] is T1, Casein kinase II subunit alpha. Put plainly: Inhibition of recombinant full length human His-tagged CK2alpha1 expressed in baculovirus expression system using ser/thr-11 peptide as substrate measured after 1 hr by Z'-Lyte assay.
Target sequence in this assay (P68400 whole entry): as the sequence (P68400 whole entry, looked up) above
Experiment [3] has as its target T2, Glycogen synthase kinase-3 beta (Homo sapiens, UniProt P49841). Description: Inhibition of recombinant full length human His-tagged GSK3beta expressed in baculovirus expression system at 11 uM using ser/thr-9 peptide as substrate measured after 1 hr by Z'-Lyte assay relative to control.
Target sequence in this assay (P49841 whole entry, looked up): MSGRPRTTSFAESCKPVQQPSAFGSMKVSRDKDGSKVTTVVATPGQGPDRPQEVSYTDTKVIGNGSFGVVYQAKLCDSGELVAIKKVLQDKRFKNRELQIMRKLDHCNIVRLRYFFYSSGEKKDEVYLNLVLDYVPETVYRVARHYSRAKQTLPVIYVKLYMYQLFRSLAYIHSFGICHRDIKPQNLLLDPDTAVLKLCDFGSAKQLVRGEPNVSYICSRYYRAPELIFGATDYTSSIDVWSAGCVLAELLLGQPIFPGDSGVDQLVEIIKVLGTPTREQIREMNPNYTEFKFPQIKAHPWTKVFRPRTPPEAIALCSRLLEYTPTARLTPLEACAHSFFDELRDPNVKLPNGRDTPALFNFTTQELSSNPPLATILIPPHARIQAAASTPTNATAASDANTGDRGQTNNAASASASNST
For experiment [4], the target named is T2, Glycogen synthase kinase-3 beta. Description: Inhibition of recombinant full length human His-tagged GSK3beta expressed in baculovirus expression system using ser/thr-9 peptide as substrate measured after 1 hr by Z'-Lyte assay.
Target sequence in this assay (P49841 whole entry): as the sequence (P49841 whole entry, looked up) above

As a reminder, the inhibition is the relative decrease from the control value, in per cent. As usually defined, the IC50 is the concentration needed to halve the response being measured. Take `CCCN(C(=O)Nc1cccc(C(=O)OCC)c1)C1CCc2nc(NCc3ccc(C(=O)OC)cc3)sc2C1` (stereo not drawn): the inhibition in experiment [1] and in experiment [3] was above 30% throughout. The results for the IC50 in experiment [2] and in experiment [4] were 4.6 µM and 13.6 µM, respectively.

For `CCCN(C(=O)Nc1cccc(F)c1)C1CCc2nc(NCc3ccc(C(=O)OC)cc3)sc2C1` (stereo not drawn), the inhibition in experiment [1] and in experiment [3] was below 30% each time.

Regarding `CCCN(C(=O)Nc1cccc(C(=O)O)c1)C1CCc2nc(NCc3ccc(C(=O)O)cc3)sc2C1` (stereo not drawn), the inhibition in experiment [1] and in experiment [3] was above 30% throughout. Further, the IC50 was 4 µM in experiment [2] and 11.4 µM in experiment [4].

With `CCCN(C(=O)Nc1ccc(OC)cc1)C1CCc2nc(NCc3ccc(C(=O)OC)cc3)sc2C1` (stereo not drawn), the inhibition in experiment [1] and in experiment [3] was below 30% in each case.

For the compound `O=C(Nc1nc2c(s1)CC(NC(=O)Nc1ccccc1F)CC2)Nc1ccccc1F` (stereo not drawn), the inhibition in experiment [1] and in experiment [3] was below 30% each time.

As to `O=C(Nc1ccc(C(=O)O)cc1)Nc1nc2c(s1)CC(N1C(=O)c3ccccc3C1=O)CC2` (stereo not drawn), the inhibition in experiment [1] and in experiment [3] was above 30% each time. The results for the IC50 in experiment [2] and in experiment [4] were 4.9 µM and 4.6 µM, respectively.

On to `CCCN(C(=O)Nc1ccccc1F)C1CCc2nc(NCc3ccc(C(=O)OC)cc3)sc2C1` (stereo not drawn), for which the inhibition in experiment [1] and in experiment [3] was below 30% throughout.

On to `CCCN(C(=O)Nc1cccc(F)c1)C1CCc2nc(NC(=O)Nc3cccc(F)c3)sc2C1` (stereo not drawn), for which the inhibition in experiment [1] and in experiment [3] was below 30% throughout.

Turning to `CCCN(C(=O)Nc1ccc(F)cc1)C1CCc2nc(NC(=O)Nc3ccc(F)cc3)sc2C1` (stereo not drawn), the inhibition in experiment [1] and in experiment [3] was below 30% throughout.

Regarding `CCOC(=O)c1ccc(NC(=O)Nc2nc3c(s2)CC(NC(=O)Nc2ccc(C(=O)OCC)cc2)CC3)cc1` (stereo not drawn), the inhibition in experiment [1] and in experiment [3] was below 30% each time.

`O=C(Nc1ccc(F)cc1)Nc1nc2c(s1)CC(N1C(=O)c3ccccc3C1=O)CC2` (stereo not drawn): the inhibition in experiment [1] and in experiment [3] was below 30% in each case.

Take `O=C(Nc1ccc(C(=O)O)cc1)Nc1nc2c(s1)CC(NC(=O)Nc1ccc(C(=O)O)cc1)CC2` (stereo not drawn): the inhibition in experiment [1] and in experiment [3] was below 30% in each case.

With `CCCN(C(=O)Nc1ccc(OC)cc1)C1CCc2nc(NCc3ccc(C(=O)O)cc3)sc2C1` (stereo not drawn), the inhibition in experiment [1] and in experiment [3] was below 30% each time.

In the case of `CCCN(C(=O)Nc1ccccc1F)C1CCc2nc(NC(=O)Nc3ccccc3F)sc2C1` (stereo not drawn), the inhibition in experiment [1] and in experiment [3] was below 30% each time.

For `O=C(Nc1ccc(F)cc1)Nc1nc2c(s1)CC(NC(=O)Nc1ccc(F)cc1)CC2` (stereo not drawn), the inhibition in experiment [1] and in experiment [3] was below 30% each time.

Consider `CCCN(C(=O)Nc1ccc(C(=O)OCC)cc1)C1CCc2nc(NC(=O)Nc3ccc(C(=O)OCC)cc3)sc2C1` (stereo not drawn), for which the inhibition in experiment [1] and in experiment [3] was below 30% in each case.

As for `COc1ccc(NC(=O)Nc2nc3c(s2)CC(N2C(=O)c4ccccc4C2=O)CC3)cc1` (stereo not drawn), the inhibition in experiment [1] and in experiment [3] was below 30% in each case.

Take `CCCN(C(=O)Nc1cccc(C(=O)OCC)c1)C1CCc2nc(NC(=O)Nc3cccc(C(=O)OCC)c3)sc2C1` (stereo not drawn): the inhibition in experiment [1] and in experiment [3] was below 30% each time.

As for `CCOC(=O)c1cccc(NC(=O)Nc2nc3c(s2)CC(N2C(=O)c4ccccc4C2=O)CC3)c1` (stereo not drawn), the inhibition in experiment [1] and in experiment [3] was above 30% throughout. The IC50 in experiment [2] amounted to 7.9 µM; in experiment [4], 5.3 µM.

For the compound `CCOC(=O)c1cccc(NC(=O)Nc2nc3c(s2)CC(NC(=O)Nc2cccc(C(=O)OCC)c2)CC3)c1` (stereo not drawn), the inhibition in experiment [1] and in experiment [3] was above 30% throughout. For the same compound, the IC50 stood at 20.4 µM in experiment [2] and 2.5 µM in experiment [4].

As to `O=C(Nc1cccc(F)c1)Nc1nc2c(s1)CC(N1C(=O)c3ccccc3C1=O)CC2` (stereo not drawn), the inhibition in experiment [1] and in experiment [3] was below 30% in each case.

For `O=C(Nc1cccc(C(=O)O)c1)Nc1nc2c(s1)CC(NC(=O)Nc1cccc(C(=O)O)c1)CC2` (stereo not drawn), the inhibition in experiment [1] and in experiment [3] was above 30% each time. Further, the IC50 in experiment [2] is 12.4 µM; in experiment [4] it was 6 µM.

As for `O=C(Nc1nc2c(s1)CC(N1C(=O)c3ccccc3C1=O)CC2)Nc1ccccc1F` (stereo not drawn), the inhibition in experiment [1] and in experiment [3] was below 30% throughout.

In the case of `CCCN(C(=O)Nc1ccc(C(=O)O)cc1)C1CCc2nc(NCc3ccc(C(=O)O)cc3)sc2C1` (stereo not drawn), the inhibition in experiment [1] and in experiment [3] was below 30% throughout.

Regarding `CCCN(C(=O)Nc1ccc(C(=O)O)cc1)C1CCc2nc(NC(=O)Nc3ccc(C(=O)O)cc3)sc2C1` (stereo not drawn), the inhibition in experiment [1] and in experiment [3] was below 30% each time.

Take `COc1ccc(NC(=O)Nc2nc3c(s2)CC(NC(=O)Nc2ccc(OC)cc2)CC3)cc1` (stereo not drawn): the inhibition in experiment [1] and in experiment [3] was below 30% each time.

`CCCN(C(=O)Nc1ccccc1F)C1CCc2nc(NCc3ccc(C(=O)O)cc3)sc2C1` (stereo not drawn): the inhibition in experiment [1] and in experiment [3] was below 30% throughout.

As for `CCOC(=O)c1ccc(NC(=O)Nc2nc3c(s2)CC(N2C(=O)c4ccccc4C2=O)CC3)cc1` (stereo not drawn), the inhibition in experiment [1] and in experiment [3] was below 30% each time.

`O=C(Nc1cccc(F)c1)Nc1nc2c(s1)CC(NC(=O)Nc1cccc(F)c1)CC2` (stereo not drawn): the inhibition in experiment [1] and in experiment [3] was below 30% throughout.

As for `CCCN(C(=O)Nc1ccc(OC)cc1)C1CCc2nc(NC(=O)Nc3ccc(OC)cc3)sc2C1` (stereo not drawn), the inhibition in experiment [1] and in experiment [3] was below 30% in each case.

Turning to `CCCN(C(=O)Nc1ccc(C(=O)OCC)cc1)C1CCc2nc(NCc3ccc(C(=O)OC)cc3)sc2C1` (stereo not drawn), the inhibition in experiment [1] and in experiment [3] was below 30% in each case.

In the case of `CCCN(C(=O)Nc1ccc(F)cc1)C1CCc2nc(NCc3ccc(C(=O)O)cc3)sc2C1` (stereo not drawn), the inhibition in experiment [1] and in experiment [3] was below 30% each time.

With `CCCN(C(=O)Nc1cccc(C(=O)O)c1)C1CCc2nc(NC(=O)Nc3cccc(C(=O)O)c3)sc2C1` (stereo not drawn), the inhibition in experiment [1] and in experiment [3] was above 30% each time. For the same compound, the results for the IC50 in experiment [2] and in experiment [4] were 2.8 µM and 1.5 µM, respectively.

In the case of `CCCN(C(=O)Nc1cccc(F)c1)C1CCc2nc(NCc3ccc(C(=O)O)cc3)sc2C1` (stereo not drawn), the inhibition in experiment [1] and in experiment [3] was below 30% each time.

Regarding `O=C(Nc1cccc(C(=O)O)c1)Nc1nc2c(s1)CC(N1C(=O)c3ccccc3C1=O)CC2` (stereo not drawn), the inhibition in experiment [1] and in experiment [3] was above 30% each time. In addition, the results for the half-maximal inhibitory concentration (IC50) in experiment [2] and in experiment [4] were 1.9 µM and 0.67 µM, respectively.

For the compound `CCCN(C(=O)Nc1ccc(F)cc1)C1CCc2nc(NCc3ccc(C(=O)OC)cc3)sc2C1` (stereo not drawn), the inhibition in experiment [1] and in experiment [3] was below 30% in each case.
